In patent publication US8192962B2, “Processes for detecting toxic substances” (Daikin Industries, Ltd., priority 2001, dated 2012):

System: Metabolism protein genes
Assay: DNA chip mRNA expression in yeast, metabolism protein genes (Table 7)
Assay type: cell-based, Saccharomyces cerevisiae S288C
How it was run: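 Chemical exposure: 2 h, log-phase S. cerevisiae S288C, YPD, 25° C., dose set to inhibit growth without death. Profiling: mRNA labeled by reverse transcription with Cy3- or Cy5-dUTP, hybridized to whole-genome array. Output: fluorescence ratio against untreated culture.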

[Cl][Cd][Cl] [(2), CdCl2]
1.8: The level of expressed mRNA in the presence of chemical substance/The level of expressed mRNA in the absence of chemical substance (yeast gene YML054C)
3.6: The level of expressed mRNA in the presence of chemical substance/The level of expressed mRNA in the absence of chemical substance (yeast gene YNL331C)
5.8: The level of expressed mRNA in the presence of chemical substance/The level of expressed mRNA in the absence of chemical substance (yeast gene YPR167C)
2.7: The level of expressed mRNA in the presence of chemical substance/The level of expressed mRNA in the absence of chemical substance (yeast gene YML100W)
1.6: level of expressed mRNA in the presence/in the absence of chemical substance (yeast gene YMR261C) | The level of expressed mRNA in the presence of chemical substance/The level of expressed mRNA in the absence of chemical substance (yeast gene YMR271C)
1.9: The level of expressed mRNA in the presence of chemical substance/The level of expressed mRNA in the absence of chemical substance (yeast gene YLR299W)
1.0: The level of expressed mRNA in the presence of chemical substance/The level of expressed mRNA in the absence of chemical substance (yeast gene YKL104C) | level of expressed mRNA in the presence/in the absence of chemical substance (yeast gene YKL157W) | The level of expressed mRNA in the presence of chemical substance/The level of expressed mRNA in the absence of chemical substance (yeast gene YLR273C) | level of expressed mRNA in the presence/in the absence of chemical substance (yeast gene YLR284C) | level of expressed mRNA in the presence/in the absence of chemical substance (yeast gene YMR011W) | The level of expressed mRNA in the presence of chemical substance/The level of expressed mRNA in the absence of chemical substance (yeast gene YMR020W) | level of expressed mRNA in the presence/in the absence of chemical substance (yeast gene YOL116W) | level of expressed mRNA in the presence/in the absence of chemical substance (yeast gene YOR251C)
2.5: level of expressed mRNA in the presence/in the absence of chemical substance (yeast gene YLR354C) | The level of expressed mRNA in the presence of chemical substance/The level of expressed mRNA in the absence of chemical substance (yeast gene YPL017C)
0.3: level of expressed mRNA in the presence/in the absence of chemical substance (yeast gene YLR372W)
0.4: The level of expressed mRNA in the presence of chemical substance/The level of expressed mRNA in the absence of chemical substance (yeast gene YLR307W)
1.3: The level of expressed mRNA in the presence of chemical substance/The level of expressed mRNA in the absence of chemical substance (yeast gene YKL091C) | The level of expressed mRNA in the presence of chemical substance/The level of expressed mRNA in the absence of chemical substance (yeast gene YKL152C) | The level of expressed mRNA in the presence of chemical substance/The level of expressed mRNA in the absence of chemical substance (yeast gene YNL012W) | The level of expressed mRNA in the presence of chemical substance/The level of expressed mRNA in the absence of chemical substance (yeast gene YNL045W) | The level of expressed mRNA in the presence of chemical substance/The level of expressed mRNA in the absence of chemical substance (yeast gene YNL104C) | The level of expressed mRNA in the presence of chemical substance/The level of expressed mRNA in the absence of chemical substance (yeast gene YNR019W) | The level of expressed mRNA in the presence of chemical substance/The level of expressed mRNA in the absence of chemical substance (yeast gene YOR099W) | level of expressed mRNA in the presence/in the absence of chemical substance (yeast gene YOR178C)
0.5: The level of expressed mRNA in the presence of chemical substance/The level of expressed mRNA in the absence of chemical substance (yeast gene YOL058W) | level of expressed mRNA in the presence/in the absence of chemical substance (yeast gene YOL086C)
4.5: The level of expressed mRNA in the presence of chemical substance/The level of expressed mRNA in the absence of chemical substance (yeast gene YLR348C) | The level of expressed mRNA in the presence of chemical substance/The level of expressed mRNA in the absence of chemical substance (yeast gene YOL165C)
1.4: The level of expressed mRNA in the presence of chemical substance/The level of expressed mRNA in the absence of chemical substance (yeast gene YLR180W) | level of expressed mRNA in the presence/in the absence of chemical substance (yeast gene YNL025C) | The level of expressed mRNA in the presence of chemical substance/The level of expressed mRNA in the absence of chemical substance (yeast gene YNL106C) | The level of expressed mRNA in the presence of chemical substance/The level of expressed mRNA in the absence of chemical substance (yeast gene YNL169C) | The level of expressed mRNA in the presence of chemical substance/The level of expressed mRNA in the absence of chemical substance (yeast gene YOR336W)
0.9: The level of expressed mRNA in the presence of chemical substance/The level of expressed mRNA in the absence of chemical substance (yeast gene YKL035W) | The level of expressed mRNA in the presence of chemical substance/The level of expressed mRNA in the absence of chemical substance (yeast gene YMR008C) | The level of expressed mRNA in the presence of chemical substance/The level of expressed mRNA in the absence of chemical substance (yeast gene YNL322C) | The level of expressed mRNA in the presence of chemical substance/The level of expressed mRNA in the absence of chemical substance (yeast gene YNR059W) | level of expressed mRNA in the presence/in the absence of chemical substance (yeast gene YOR108W) | The level of expressed mRNA in the presence of chemical substance/The level of expressed mRNA in the absence of chemical substance (yeast gene YOR347C) | level of expressed mRNA in the presence/in the absence of chemical substance (yeast gene YPL028W)
3.0: The level of expressed mRNA in the presence of chemical substance/The level of expressed mRNA in the absence of chemical substance (yeast gene YMR105C)
1.2: level of expressed mRNA in the presence/in the absence of chemical substance (yeast gene YLR089C) | level of expressed mRNA in the presence/in the absence of chemical substance (yeast gene YNL192W) | The level of expressed mRNA in the presence of chemical substance/The level of expressed mRNA in the absence of chemical substance (yeast gene YOL153C) | level of expressed mRNA in the presence/in the absence of chemical substance (yeast gene YOR142W) | level of expressed mRNA in the presence/in the absence of chemical substance (yeast gene YPL135W) | The level of expressed mRNA in the presence of chemical substance/The level of expressed mRNA in the absence of chemical substance (yeast gene YPR026W)
1.5: level of expressed mRNA in the presence/in the absence of chemical substance (yeast gene YKR034W) | The level of expressed mRNA in the presence of chemical substance/The level of expressed mRNA in the absence of chemical substance (yeast gene YNL332W) | level of expressed mRNA in the presence/in the absence of chemical substance (yeast gene YOL108C) | level of expressed mRNA in the presence/in the absence of chemical substance (yeast gene YPR183W)
1.7: The level of expressed mRNA in the presence of chemical substance/The level of expressed mRNA in the absence of chemical substance (yeast gene YML070W) | level of expressed mRNA in the presence/in the absence of chemical substance (yeast gene YMR083W) | The level of expressed mRNA in the presence of chemical substance/The level of expressed mRNA in the absence of chemical substance (yeast gene YOR130C)
1.1: The level of expressed mRNA in the presence of chemical substance/The level of expressed mRNA in the absence of chemical substance (yeast gene YKL215C) | level of expressed mRNA in the presence/in the absence of chemical substance (yeast gene YMR323W) | level of expressed mRNA in the presence/in the absence of chemical substance (yeast gene YOR002W) | level of expressed mRNA in the presence/in the absence of chemical substance (yeast gene YPL057C)
0.7: level of expressed mRNA in the presence/in the absence of chemical substance (yeast gene YLR006C) | level of expressed mRNA in the presence/in the absence of chemical substance (yeast gene YMR015C) | level of expressed mRNA in the presence/in the absence of chemical substance (yeast gene YMR205C) | The level of expressed mRNA in the presence of chemical substance/The level of expressed mRNA in the absence of chemical substance (yeast gene YMR296C) | level of expressed mRNA in the presence/in the absence of chemical substance (yeast gene YOL156W) | level of expressed mRNA in the presence/in the absence of chemical substance (yeast gene YOR128C) | level of expressed mRNA in the presence/in the absence of chemical substance (yeast gene YOR348C) | level of expressed mRNA in the presence/in the absence of chemical substance (yeast gene YPR165W)
2.6: level of expressed mRNA in the presence/in the absence of chemical substance (yeast gene YOR176W)
3.7: The level of expressed mRNA in the presence of chemical substance/The level of expressed mRNA in the absence of chemical substance (yeast gene YJR155W)
0.8: level of expressed mRNA in the presence/in the absence of chemical substance (yeast gene YKL060C) | level of expressed mRNA in the presence/in the absence of chemical substance (yeast gene YKL148C) | The level of expressed mRNA in the presence of chemical substance/The level of expressed mRNA in the absence of chemical substance (yeast gene YKL213C) | level of expressed mRNA in the presence/in the absence of chemical substance (yeast gene YLR058C) | level of expressed mRNA in the presence/in the absence of chemical substance (yeast gene YLR081W) | The level of expressed mRNA in the presence of chemical substance/The level of expressed mRNA in the absence of chemical substance (yeast gene YLR300W) | The level of expressed mRNA in the presence of chemical substance/The level of expressed mRNA in the absence of chemical substance (yeast gene YMR189W) | The level of expressed mRNA in the presence of chemical substance/The level of expressed mRNA in the absence of chemical substance (yeast gene YNL231C) | The level of expressed mRNA in the presence of chemical substance/The level of expressed mRNA in the absence of chemical substance (yeast gene YNR033W) | The level of expressed mRNA in the presence of chemical substance/The level of expressed mRNA in the absence of chemical substance (yeast gene YOL126C) | level of expressed mRNA in the presence/in the absence of chemical substance (yeast gene YOR085W) | level of expressed mRNA in the presence/in the absence of chemical substance (yeast gene YOR103C) | level of expressed mRNA in the presence/in the absence of chemical substance (yeast gene YPL148C) | level of expressed mRNA in the presence/in the absence of chemical substance (yeast gene YPR113W)
3.8: The level of expressed mRNA in the presence of chemical substance/The level of expressed mRNA in the absence of chemical substance (yeast gene YLL058W)
0.6: level of expressed mRNA in the presence/in the absence of chemical substance (yeast gene YLR044C) | level of expressed mRNA in the presence/in the absence of chemical substance (yeast gene YLR056W) | level of expressed mRNA in the presence/in the absence of chemical substance (yeast gene YLR304C) | level of expressed mRNA in the presence/in the absence of chemical substance (yeast gene YML022W)
